Patent publication US11226337B2, “Chemoproteomic profiling of protein electrophilic and oxidative post-translational modifications” (Zenagem, LLC, priority 2017, dated 2022)

Assays:
[1] = test system: HEK293T cells; experiment: gel-based in situ probe labelling (rhodamine-azide, in-gel fluorescence); type: cell-based, human; details: soluble and membrane proteomes, 30 minutes
Method: For gel-based experiments, cells were plated and grown to near complete confluence at the time of treatment. Cells were washed with cold phosphate buffered saline (PBS, pH 7.4) and replenished with serum-free DMEM (˜15% of normal passage volume, e.g. a 10 cm plate normally passaged with 10 mL media received 1.5 mL) supplemented with 10 mM Na-HEPES buffer (pH 7.5). Unless otherwise indicated, cells were incubated with probes (3 mM and 1 mM for probes 1 and 2, respectively) in the absence or presence of 10-fold excess non-clickable competitor probes (30 mM and 10 mM for 3 and 4, respectively) for 0.5 hour at 37° C. When applicable, probe and competitor were premixed before co-administering to the cells.
The cells were lysed, and the cell proteomes were conjugated to a rhodamine-azide (Rh—N3) reporter tag.
Soluble proteomes from treated cells were diluted to 1 mg/mL. To each sample (50 μL), a freshly prepared “click” or CuAAC reagent mixture (6 μL) containing 0.1 mM tris(benzyltriazolylmethyl)amine (TBTA) (3 μL/sample, 1.7 mM in 4:1 DMSO:t-BuOH), 1 mM CuSO4 (1 μL/sample, 50 mM in H2O), 25 μM azide-rhodamine (1 μL/sample, 1.25 mM in DMSO), and freshly prepared 1 mM tris(2-carboxyethyl)phosphine (TCEP) (1 μL/sample, 50 mM in PBS or H2O) was added to conjugate the fluorophore to probe-labelled proteins. TBTA was purchased from TCI and azide-rhodamine was synthesized as previously described^64. Upon addition of the click mixture, each reaction was immediately mixed by vortexing and then allowed to react at ambient temperature for 1 hour before quenching the reactions with SDS loading buffer (4× stock, 17 μL). Proteins (˜25 μg total protein loaded per gel lane) were resolved by SDS-PAGE (10% acrylamide) and visualized by in-gel fluorescence scanning on a Hitachi FMBIO-II or BioRad ChemiDoc MP flatbed fluorescence scanner.

[2] = test system: HEK293T and MDA-MB-231 cells; experiment: determination of high-reactivity protein targets (SILAC RP-ABPP); type: cell-based, human; details: enrichment ratio >5 and competition ratio >4
Method: To further eliminate false positives and any stochastic variability in the data, protein ratios were then determined by the median peptide ratio derived from three or more unique quantified peptides. Protein ratios that complied with these criteria from a single experiment were then averaged with ratios acquired from ≥3 replicates to provide final values for each type of experiment in both cell lines with both probes. […] Most importantly, there are no robustly measured ratios for proteins identified as probe 1 targets that had measured ratios of ˜1 with probe 2. […]
Two types of experiments were performed—1) direct enrichment of probe 1-labelled proteins from heavy cells in comparison to light control cells treated with the non-clickable hydrazine (3) at the same concentration as 1 (3 mM for 0.5 h); and 2) competition experiments where both heavy and light cells were treated probe 1, but light cells were also treated with 10× competitor 3 (FIG. 3A)—in two different human cell lines (HEK293T cells and the human breast cancer cell line MDA-MB-231). […] The target list was further refined by requiring that each protein was detected with a minimum of three unique quantified peptides per experiment and by averaging protein ratios across three or more biological replicates per cell line.

[3] = biological target: T1, MMP14 Matrix metalloproteinase14 (P50281) (Homo sapiens, UniProt P50281); experiment: SILAC RP-ABPP; type: cell-based; details: SILAC H/L, MDA-MB-231
T1 construct: endogenous in cells; host or cells: HEK293T or MDA-MB-231
Method: (§1) For MS-based experiments, labelling was performed in a similar manner as described above in Example 2, maintaining the same concentrations of probes. Modifications to this protocol included using isotopically ‘light’ and ‘heavy’ SILAC cells that were also grown to near complete confluence prior to treatment. Isotopically light cells were treated with the non-clickable hydrazine probe (at the same concentration as the probe in ‘enrichment’ experiments) or the probe in the presence of 10-fold excess non-clickable hydrazine probe as a competitor (in ‘competition’ experiments). Isotopically heavy cells were treated with the probe for both types of experiments. These treatments were performed in non-SILAC media. Following treatments, cells were washed with cold PBS to remove the probe-containing media, harvested by scraping, collected by centrifugation (1,400 g, 3 min, 4° C.), washed again by resuspension in cold PBS and frozen as pellets at −80° C. until use.
(§2) The fractionated equimolar mixture of heavy and light soluble proteomes (1-1.5 mg) was diluted to 1 mL in PBS. Click reactions were scaled accordingly (except for biotin-azide) to maintain final concentrations of 0.1 mM TBTA, 1 mM CuSO4, 100 μM biotin-azide (10 mM in DMSO) and 1 mM TCEP. The mixture was vortexed and placed on a rotator at ambient temperature for 1 hour. Sequential addition of and mixture with pre-chilled methanol (MeOH, 2 mL), chloroform (CHCl3, 0.5 mL) and PBS (1 mL) on ice quenched the reaction. The precipitated proteome was centrifuged (5,000 g, 10 min, 4° C.) to fractionate the protein interphase from the organic and aqueous solvent layers. The protein pellet was washed with cold 1:1 MeOH:CHCl3 (3×1 mL), mildly sonicated in cold 4:1 MeOH:CHCl3 (2.5 mL) and pelleted once more by centrifugation (5,000 g, 10 min, 4° C.) to ensure click reagents were efficiently removed.
(§3) Heavy and light parent ion chromatograms associated with successfully identified peptides were extracted and compared using CIMAGE software as previously described^69. At least one ion of a co-eluting heavy-light pair must be accurately identified from a fragmentation event that occurred within the retention time window (±10 min) of parent ion elution. To ensure that the correct pair of peaks is quantified, chromatograms are extracted within a 10 ppm error tolerance of the predicted m/z, the signal-to-noise ratio must be >2.5 and the ‘co-elution correlation score’ and ‘envelope correlation score’ must have R^2 values ≥0.8. In addition, peptides detected as ‘singletons,’ where only the heavy ion of a peptide pair was identified, but for which passed all other filtering parameters, are given a default assigned ratio of ‘20,’ which is defined as any measured ratio that is ≥20.
(§4) To further eliminate false positives and any stochastic variability in the data, protein ratios were then determined by the median peptide ratio derived from three or more unique quantified peptides. Protein ratios that complied with these criteria from a single experiment were then averaged with ratios acquired from ≥3 replicates to provide final values for each type of experiment in both cell lines with both probes. […] Most importantly, there are no robustly measured ratios for proteins identified as probe 1 targets that had measured ratios of ˜1 with probe 2. Probe targets in HEK293T and MDA-MB-231 cells represent data combined from ≥3 independent biological replicates with each cell type performed with several independent batches of synthesized probes over a period of almost two years.
(§5) Analogous experiments were also performed with the aryl hydrazine probe 2 (1 mM, 0.5 hour), which furnished a larger list of high-reactivity proteins (33 in total; Table 3) that contained several of the targets of probe 1 (compared in Table 4), as well as additional proteins that may reflect an expanded chemical reactivity for probe 2.

[4] = biological target: T2, XPNPEP3 Probable XaaPro aminopeptidase 3 (Q9NQH7) (Homo sapiens, UniProt Q9NQH7); experiment: SILAC RP-ABPP; type: cell-based; details: SILAC H/L, HEK293T
T2 construct: In Situ Labelling of Cells with Hydrazine Probes for MS Experiments; endogenous in cells; host or cells: HEK293T and/or MDA-MB-231
Method: as §1, §2, §3, §4, §5

C#CCNN.Cl [probe 1, prop-2-yn-1-ylhydrazine hydrochloride]
protein labeling, in-gel fluorescence ([1]; hydrochloride): Concentration-dependent protein labeling | number of high-reactivity proteins [2]: ten

C#CCCNC(=O)c1ccc(NN)cc1.Cl [probe 2, N-(but-3-yn-1-yl)-4-hydrazinylbenzamide hydrochloride]
enrichment ratioavg ([3]; probe 2 1 mM 0.5 h vs probe 4): 10 | competition ratioavg ([3]; probe 2 vs probe 2+10x probe 4): 3 | enrichment ratioavg ([4]; probe 2 1 mM 0.5 h vs probe 4): 20 | competition ratioavg ([4]; probe 2 vs probe 2+10x probe 4): 4 | protein labeling, in-gel fluorescence [1]: Concentration-dependent protein labeling | number of high-reactivity proteins [2]: 33
